Measured values as given in patent publication US20080318943A1, “Compounds and Uses Thereof - 848” (ASTRAZENECA AB, priority 2007, published 2008).

Target: T1, GABAA2 receptors (α2, β3, γ2 receptor subunits transfected into Sf9 cells) (Homo sapiens, UniProt P18507+P47869)
T1 construct: host or cells: Sf9 cells (membranes)
Assay: GABAA2 Binding Method ([3H]-Flunitrazepam displacement)
Conditions: [3H]-Flunitrazepam ~2 nM, α2β3γ2 Sf9 membranes, 1 hr at 4° C.
Procedure: In some embodiments, the binding test is directed to a subtype of GABAA receptors, such as GABAA1 receptors (i.e., those containing the α1 subunit), GABAA2 receptors (i.e., those containing the α2 subunit), GABAA3 receptors (i.e., those containing the α3 subunit) and GABAA5 receptors (i.e., those containing the α5 subunit).
[^3H]-Flunitrazepam (Cat #NET567): Prepare 10× stock=20 nM, [F} in assay=˜2 nM
1. […] Add 5 ul of 30 uM flumazenil to wells 12 D-E for 50% control wells.
5. Add 25 μl [^3H]-Flunitrazepam (Automation Program 6). Incubate for 1 hr at 4° C.
6. Collect membranes on a cell harvester onto GF/B filter plates (pre-wet with dH2O and wash 5×400 μl/well, with cold assay buffer. (First 3 washes are considered hot; last two are cold.)
Data is analyzed by calculating percent of control, IC50, and Ki in an XLfit template. The following formula is used in the templates: […]

T1 sequence (P47869 29-451): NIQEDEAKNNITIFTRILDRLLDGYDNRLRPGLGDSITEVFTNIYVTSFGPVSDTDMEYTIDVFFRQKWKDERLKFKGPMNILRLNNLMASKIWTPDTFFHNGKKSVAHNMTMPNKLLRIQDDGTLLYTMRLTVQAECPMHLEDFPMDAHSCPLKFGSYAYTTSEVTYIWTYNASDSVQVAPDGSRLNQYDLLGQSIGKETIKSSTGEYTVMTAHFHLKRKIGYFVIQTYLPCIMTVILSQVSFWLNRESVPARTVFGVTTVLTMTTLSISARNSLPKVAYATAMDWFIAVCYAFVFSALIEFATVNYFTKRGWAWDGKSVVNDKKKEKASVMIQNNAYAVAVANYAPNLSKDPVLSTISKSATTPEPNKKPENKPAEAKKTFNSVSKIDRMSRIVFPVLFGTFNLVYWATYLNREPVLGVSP
T1 sequence (P28472 26-473 partner): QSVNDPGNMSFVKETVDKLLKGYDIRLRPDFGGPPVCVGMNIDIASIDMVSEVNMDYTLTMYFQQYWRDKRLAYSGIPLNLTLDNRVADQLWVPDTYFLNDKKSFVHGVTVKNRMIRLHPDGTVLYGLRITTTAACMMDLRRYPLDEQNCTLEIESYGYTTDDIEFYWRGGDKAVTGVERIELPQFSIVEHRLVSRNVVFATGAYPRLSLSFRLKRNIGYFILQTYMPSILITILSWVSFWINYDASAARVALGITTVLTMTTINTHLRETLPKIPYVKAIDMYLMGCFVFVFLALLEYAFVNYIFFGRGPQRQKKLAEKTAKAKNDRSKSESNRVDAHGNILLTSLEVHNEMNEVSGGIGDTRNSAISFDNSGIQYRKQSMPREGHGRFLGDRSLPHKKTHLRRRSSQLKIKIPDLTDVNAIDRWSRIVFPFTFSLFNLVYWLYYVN
T1 sequence (P18507 40-475): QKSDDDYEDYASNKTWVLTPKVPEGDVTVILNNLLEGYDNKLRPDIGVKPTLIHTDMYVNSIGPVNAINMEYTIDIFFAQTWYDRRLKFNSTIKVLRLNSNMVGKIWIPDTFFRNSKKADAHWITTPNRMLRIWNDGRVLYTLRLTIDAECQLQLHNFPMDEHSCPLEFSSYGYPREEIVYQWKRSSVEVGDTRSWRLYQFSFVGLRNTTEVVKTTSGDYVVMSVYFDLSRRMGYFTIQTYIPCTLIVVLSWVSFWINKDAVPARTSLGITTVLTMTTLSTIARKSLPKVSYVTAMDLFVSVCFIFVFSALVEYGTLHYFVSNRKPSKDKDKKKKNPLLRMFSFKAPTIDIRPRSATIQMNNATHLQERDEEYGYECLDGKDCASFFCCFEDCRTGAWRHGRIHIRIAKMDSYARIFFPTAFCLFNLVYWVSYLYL

SMILES	Ki
CN1Cc2nc3c(-c4ccccc4C#N)cccc3c(N)c2C1=O [2-(9-amino-2-methyl-1-oxo-2,3-dihydro-1H-pyrrolo[3,4-b]quinolin-5-yl)benzonitrile]	64.3 nM
CCCN1Cc2nc3c(-c4ccc(C#N)cc4)cccc3c(N)c2C1=O [4-(9-amino-1-oxo-2-propyl-2,3-dihydro-1H-pyrrolo[3,4-b]quinolin-5-yl)benzonitrile]	52.1 nM
COc1cccc(F)c1-c1cccc2c(N)c3c(nc12)CN(Cc1cccc(Cl)c1)C3=O [9-amino-2-(3-chlorobenzyl)-5-(2-fluoro-6-methoxyphenyl)-2,3-dihydro-1H-pyrrolo[3,4-b]quinolin-1-one]	27.8 nM
COc1ccc(CN2Cc3nc4c(-c5cnn(C)c5)cccc4c(N)c3C2=O)cc1 [9-amino-2-(4-methoxybenzyl)-5-(1-methyl-1H-pyrazol-4-yl)-2,3-dihydro-1H-pyrrolo[3,4-b]quinolin-1-one]	70.6 nM
COc1ccc(CN2Cc3nc4c(-c5ccccc5C(F)(F)F)cccc4c(N)c3C2=O)cc1 [9-amino-2-(4-methoxybenzyl)-5-(2-(trifluoromethyl)phenyl)-2,3-dihydro-1H-pyrrolo[3,4-b]quinolin-1-one]	34.1 nM
COc1ccc(CN2Cc3nc4c(-c5ccc(C)nc5)cccc4c(N)c3C2=O)cc1 [9-amino-2-(4-methoxybenzyl)-5-(6-methylpyridin-3-yl)-2,3-dihydro-1H-pyrrolo[3,4-b]quinolin-1-one]	60.5 nM
COc1cc(F)c(-c2cccc3c(N)c4c(nc23)CN(C2CC2)C4=O)cc1F [9-amino-2-cyclopropyl-5-(2,5-difluoro-4-methoxyphenyl)-2,3-dihydro-1H-pyrrolo[3,4-b]quinolin-1-one]	36.8 nM
COc1cc(F)ccc1-c1cccc2c(N)c3c(nc12)CN(C1CC1)C3=O [9-amino-2-cyclopropyl-5-(4-fluoro-2-methoxyphenyl)-2,3-dihydro-1H-pyrrolo[3,4-b]quinolin-1-one]	83.1 nM
CCN1Cc2nc3c(-c4cc(F)cc(OC)c4)cccc3c(N)c2C1=O [9-amino-2-ethyl-5-(3-fluoro-5-methoxyphenyl)-2,3-dihydro-1H-pyrrolo[3,4-b]quinolin-1-one]	34.3 nM
CCN1Cc2nc3c(-c4ccc(C)nc4)cccc3c(N)c2C1=O [9-amino-2-ethyl-5-(6-methylpyridin-3-yl)-2,3-dihydro-1H-pyrrolo[3,4-b]quinolin-1-one]	77.6 nM
CCN1Cc2nc3c(-c4cccc(OC)c4F)c(F)ccc3c(N)c2C1=O [9-amino-2-ethyl-6-fluoro-5-(2-fluoro-3-methoxyphenyl)-2,3-dihydro-1H-pyrrolo[3,4-b]quinolin-1-one]	5.29 nM
Cc1ccncc1-c1cccc2c(N)c3c(nc12)CN(C)C3=O [9-amino-2-methyl-5-(4-methylpyridin-3-yl)-2,3-dihydro-1H-pyrrolo[3,4-b]quinolin-1-one]	64.9 nM
CCN1Cc2nc3c(-c4cccc(OC)c4OC)cccc3c(N)c2C1=O [9-amino-5-(2,3-dimethoxyphenyl)-2-ethyl-2,3-dihydro-1H-pyrrolo[3,4-b]quinolin-1-one]	81.9 nM
COc1ccc(-c2cccc3c(N)c4c(nc23)CN(C)C4=O)c(OC)c1 [9-amino-5-(2,4-dimethoxyphenyl)-2-methyl-2,3-dihydro-1H-pyrrolo[3,4-b]quinolin-1-one]	79 nM
CCN1Cc2nc3c(-c4c(OC)cccc4OC)cccc3c(N)c2C1=O [9-amino-5-(2,6-dimethoxyphenyl)-2-ethyl-2,3-dihydro-1H-pyrrolo[3,4-b]quinolin-1-one]	82.5 nM
COc1cc(OC)cc(-c2cccc3c(N)c4c(nc23)CN(C)C4=O)c1 [9-amino-5-(3,5-dimethoxyphenyl)-2-methyl-2,3-dihydro-1H-pyrrolo[3,4-b]quinolin-1-one]	74.1 nM

The remaining lines, values ahead:

Ki	SMILES
75.7 nM	CCCN1Cc2nc3c(-c4c(C#N)cccc4OC)cccc3c(N)c2C1=O [2-(9-amino-1-oxo-2-propyl-2,3-dihydro-1H-pyrrolo[3,4-b]quinolin-5-yl)-3-methoxybenzonitrile]
74.5 nM	CCCN1Cc2nc3c(-c4ccc(F)c(C#N)c4)cccc3c(N)c2C1=O [5-(9-amino-1-oxo-2-propyl-2,3-dihydro-1H-pyrrolo[3,4-b]quinolin-5-yl)-2-fluorobenzonitrile]
46.2 nM	CCC(C)N1Cc2nc3c(-c4c(F)cccc4OC)cccc3c(N)c2C1=O (stereo not shown) [9-amino-2-(2-butyl)-5-(2-fluoro-6-methoxyphenyl)-2,3-dihydro-1H-pyrrolo[3,4-b]quinolin-1-one]
90.5 nM	CCCCN1Cc2nc3c(-c4ccc(C)nc4)cccc3c(N)c2C1=O [9-amino-2-butyl-5-(6-methylpyridin-3-yl)-2,3-dihydro-1H-pyrrolo[3,4-b]quinolin-1-one]
39.3 nM	Nc1c2c(nc3c(-c4cc(F)cc(F)c4)cccc13)CN(C1CCC1)C2=O [9-amino-2-cyclobutyl-5-(3,5-difluorophenyl)-2,3-dihydro-1H-pyrrolo[3,4-b]quinolin-1-one]
58.4 nM	COc1ccc(-c2cccc3c(N)c4c(nc23)CN(C2CC2)C4=O)c(OC)c1 [9-amino-2-cyclopropyl-5-(2,4-dimethoxyphenyl)-2,3-dihydro-1H-pyrrolo[3,4-b]quinolin-1-one]
78.2 nM	COc1ncc(-c2cccc3c(N)c4c(nc23)CN(C2CC2)C4=O)c(OC)n1 [9-amino-2-cyclopropyl-5-(2,4-dimethoxypyrimidin-5-yl)-2,3-dihydro-1H-pyrrolo[3,4-b]quinolin-1-one]
36.7 nM	COc1ccc(OC)c(-c2c(SC)ccc3c(N)c4c(nc23)CN(C2CC2)C4=O)c1 [9-amino-2-cyclopropyl-5-(2,5-dimethoxyphenyl)-6-(methylthio)-2,3-dihydro-1H-pyrrolo[3,4-b]quinolin-1-one]
54.1 nM	COc1ccccc1-c1cccc2c(N)c3c(nc12)CN(C1CC1)C3=O [9-amino-2-cyclopropyl-5-(2-methoxyphenyl)-2,3-dihydro-1H-pyrrolo[3,4-b]quinolin-1-one]
73.4 nM	COc1ccc(F)cc1-c1cccc2c(N)c3c(nc12)CN(C1CC1)C3=O [9-amino-2-cyclopropyl-5-(5-fluoro-2-methoxyphenyl)-2,3-dihydro-1H-pyrrolo[3,4-b]quinolin-1-one]
64.7 nM	Nc1c2c(nc3c(-c4cccnc4)cccc13)CN(C1CC1)C2=O [9-amino-2-cyclopropyl-5-(pyridin-3-yl)-2,3-dihydro-1H-pyrrolo[3,4-b]quinolin-1-one]
99.7 nM	CCCN1Cc2nc3c(-c4cnn(C)c4)cccc3c(N)c2C1=O [9-amino-5-(1-methyl-1H-pyrazol-4-yl)-2-propyl-2,3-dihydro-1H-pyrrolo[3,4-b]quinolin-1-one]
98.2 nM	COc1ccc(CN2Cc3nc4c(-c5cccc(F)c5F)cccc4c(N)c3C2=O)cc1 [9-amino-5-(2,3-difluorophenyl)-2-(4-methoxybenzyl)-2,3-dihydro-1H-pyrrolo[3,4-b]quinolin-1-one]
99.1 nM	CCN1Cc2nc3c(-c4ccc(OC)cc4OC)cccc3c(N)c2C1=O [9-amino-5-(2,4-dimethoxyphenyl)-2-ethyl-2,3-dihydro-1H-pyrrolo[3,4-b]quinolin-1-one]
70.2 nM	COc1ccc(CN2Cc3nc4c(-c5cc(OC)ccc5OC)cccc4c(N)c3C2=O)cc1 [9-amino-5-(2,5-dimethoxyphenyl)-2-(4-methoxybenzyl)-2,3-dihydro-1H-pyrrolo[3,4-b]quinolin-1-one]
21.6 nM	CCCN1Cc2nc3c(-c4ccc(Cl)nc4Cl)cccc3c(N)c2C1=O [9-amino-5-(2,6-dichloropyridin-3-yl)-2-propyl-2,3-dihydro-1H-pyrrolo[3,4-b]quinolin-1-one]
77.8 nM	COc1ccc(-c2cccc3c(N)c4c(nc23)CN(C)C4=O)c(F)c1 [9-amino-5-(2-fluoro-4-methoxyphenyl)-2-methyl-2,3-dihydro-1H-pyrrolo[3,4-b]quinolin-1-one]
55.8 nM	COc1ccc(F)c(-c2cccc3c(N)c4c(nc23)CN(C)C4=O)c1 [9-amino-5-(2-fluoro-5-methoxyphenyl)-2-methyl-2,3-dihydro-1H-pyrrolo[3,4-b]quinolin-1-one]
51.1 nM	CCCN1Cc2nc3c(-c4cc(-c5ccncc5)ccc4OC)cccc3c(N)c2C1=O [9-amino-5-(2-methoxy-5-(pyridin-4-yl)phenyl)-2-propyl-2,3-dihydro-1H-pyrrolo[3,4-b]quinolin-1-one]
55.1 nM	COc1ccc(CN2Cc3nc4c(-c5cc(C)ccc5OC)cccc4c(N)c3C2=O)cc1 [9-amino-5-(2-methoxy-5-methylphenyl)-2-(4-methoxybenzyl)-2,3-dihydro-1H-pyrrolo[3,4-b]quinolin-1-one]
70.2 nM	COc1ccc(C)cc1-c1cccc2c(N)c3c(nc12)CN(C)C3=O [9-amino-5-(2-methoxy-5-methylphenyl)-2-methyl-2,3-dihydro-1H-pyrrolo[3,4-b]quinolin-1-one]
75.8 nM	CCCN1Cc2nc3c(-c4cnc(OC)nc4)cccc3c(N)c2C1=O [9-amino-5-(2-methoxypyrimidin-5-yl)-2-propyl-2,3-dihydro-1H-pyrrolo[3,4-b]quinolin-1-one]
88 nM	COc1ccc(-c2cccc3c(N)c4c(nc23)CN(C)C4=O)cc1OC [9-amino-5-(3,4-dimethoxyphenyl)-2-methyl-2,3-dihydro-1H-pyrrolo[3,4-b]quinolin-1-one]
27.2 nM	CCN1Cc2nc3c(-c4cc(OC)cc(OC)c4)cccc3c(N)c2C1=O [9-amino-5-(3,5-dimethoxyphenyl)-2-ethyl-2,3-dihydro-1H-pyrrolo[3,4-b]quinolin-1-one]
